Species on record: Rattus norvegicus
Assay: DrugMatrix - Regimen: Daily Repeat
Assay type: toxicity, organism-based, Sprague-Dawley
Set-up: regimen Daily Repeat, gender Male, age 6-8 weeks
Conditions: in vivo, po, […], route oral GAVAGE; for ABSOLUTE BASOPHIL / ABSOLUTE EOSINOPHIL / ABSOLUTE LYMPHOCYTE / ABSOLUTE MONOCYTE / ABSOLUTE SEGMENTED NEUTROPHIL / BASOPHIL / EOSINOPHIL / ERYTHROCYTE COUNT / HEMATOCRIT / HEMOGLOBIN / LEUKOCYTE COUNT / LYMPHOCYTE / MEAN CORPUSCULAR HEMOGLOBIN / MEAN CORPUSCULAR HEMOGLOBIN CONCENTRATION / MEAN CORPUSCULAR VOLUME / MONOCYTE / NEUTROPHIL / NUCLEATED RED BLOOD CELLS / PLATELET COUNT: tissue Blood; for ALANINE AMINOTRANSFERASE / ALBUMIN / ALKALINE PHOSPHATASE / ASPARTATE AMINOTRANSFERASE / BLOOD UREA NITROGEN / CARBON DIOXIDE / CHLORIDE / CHOLESTEROL / CREATINE PHOSPHOKINASE / CREATININE / GLUCOSE / LACTATE DEHYDROGENASE / LIPASE / PHOSPHORUS / POTASSIUM / SODIUM / TOTAL BILIRUBIN / TOTAL PROTEIN / URIC ACID: tissue Plasma
[1] = 130 mg/kg, dose level Low, time 7 day
[2] = 500 mg/kg, 72 h, dose level High, time 3 day
[3] = 500 mg/kg, dose level High, time 7 day

## CCOC(=O)C(C)(C)Oc1ccc(Cl)cc1 [CLOFIBRATE]
[1]
  ABSOLUTE BASOPHIL: 0 CELLS/uL
  ABSOLUTE EOSINOPHIL: 21.17 CELLS/uL
  ABSOLUTE LYMPHOCYTE: 6867.67 CELLS/uL
  ABSOLUTE MONOCYTE: 104.17 CELLS/uL
  ABSOLUTE SEGMENTED NEUTROPHIL: 707 CELLS/uL
  BASOPHIL: 0%
  EOSINOPHIL: 0.17%
  ERYTHROCYTE COUNT: 5.45 x10E6/uL
  HEMATOCRIT: 34%
  HEMOGLOBIN: 13.12 G/DL
  LEUKOCYTE COUNT: 7.7 x10E3/uL
  LYMPHOCYTE: 90.17%
  MEAN CORPUSCULAR HEMOGLOBIN: 24.08 pg
  MEAN CORPUSCULAR HEMOGLOBIN CONCENTRATION: 38.57 G/DL
  MEAN CORPUSCULAR VOLUME: 62.45 fL
  MONOCYTE: 1.17%
  NEUTROPHIL: 8.5%
  NUCLEATED RED BLOOD CELLS: 0 /100WBC
  PLATELET COUNT: 1220 x10E3/uL
  ALANINE AMINOTRANSFERASE: 65.83 u/L
  ALBUMIN: 4.38 G/DL
  ALKALINE PHOSPHATASE: 251.5 u/L
  ASPARTATE AMINOTRANSFERASE: 76.33 u/L
  BLOOD UREA NITROGEN: 14.33 mg/dL
  CARBON DIOXIDE: 30.5 mmol/L
  CHLORIDE: 104.5 MEQ/L
  CHOLESTEROL: 60.5 mg/dL
  CREATINE PHOSPHOKINASE: 323.5 u/L
  CREATININE: 0.21 mg/dL
  GLUCOSE: 149.17 mg/dL
  LACTATE DEHYDROGENASE: 102.17 u/L
  LIPASE: 9.67 u/L
  PHOSPHORUS: 10.73 mg/dL
  POTASSIUM: 5.56 MEQ/L
  SODIUM: 146.55 MEQ/L
  TOTAL BILIRUBIN: 0.1 mg/dL
  TOTAL PROTEIN: 6.07 G/DL
  URIC ACID: 0.98 mg/dL
[2]
  ABSOLUTE BASOPHIL: 0 CELLS/uL
  ABSOLUTE EOSINOPHIL: 0 CELLS/uL
  ABSOLUTE LYMPHOCYTE: 11363.33 CELLS/uL
  ABSOLUTE MONOCYTE: 222.5 CELLS/uL
  ABSOLUTE SEGMENTED NEUTROPHIL: 1180.83 CELLS/uL
  BASOPHIL: 0%
  EOSINOPHIL: 0%
  ERYTHROCYTE COUNT: 5.54 x10E6/uL
  HEMATOCRIT: 33.68%
  HEMOGLOBIN: 13.67 G/DL
  LEUKOCYTE COUNT: 12.77 x10E3/uL
  LYMPHOCYTE: 89%
  MEAN CORPUSCULAR HEMOGLOBIN: 24.72 pg
  MEAN CORPUSCULAR HEMOGLOBIN CONCENTRATION: 40.7 G/DL
  MEAN CORPUSCULAR VOLUME: 60.78 fL
  MONOCYTE: 1.67%
  NEUTROPHIL: 9.33%
  NUCLEATED RED BLOOD CELLS: 0 /100WBC
  PLATELET COUNT: 1039.67 x10E3/uL
  ALANINE AMINOTRANSFERASE: 88.83 u/L
  ALBUMIN: 4.27 G/DL
  ALKALINE PHOSPHATASE: 424.33 u/L
  ASPARTATE AMINOTRANSFERASE: 162 u/L
  BLOOD UREA NITROGEN: 18 mg/dL
  CARBON DIOXIDE: 26.83 mmol/L
  CHLORIDE: 103.5 MEQ/L
  CHOLESTEROL: 32.5 mg/dL
  CREATINE PHOSPHOKINASE: 350.5 u/L
  CREATININE: 0.19 mg/dL
  GLUCOSE: 152.17 mg/dL
  LACTATE DEHYDROGENASE: 380 u/L
  LIPASE: 9.17 u/L
  PHOSPHORUS: 9.13 mg/dL
  POTASSIUM: 6.05 MEQ/L
  SODIUM: 141.43 MEQ/L
  TOTAL BILIRUBIN: 0.2 mg/dL
  TOTAL PROTEIN: 5.38 G/DL
  URIC ACID: 1.42 mg/dL
[3]
  ABSOLUTE BASOPHIL: 0 CELLS/uL
  ABSOLUTE EOSINOPHIL: 10.67 CELLS/uL
  ABSOLUTE LYMPHOCYTE: 6850.83 CELLS/uL
  ABSOLUTE MONOCYTE: 72 CELLS/uL
  ABSOLUTE SEGMENTED NEUTROPHIL: 433.17 CELLS/uL
  BASOPHIL: 0%
  EOSINOPHIL: 0.17%
  ERYTHROCYTE COUNT: 5.25 x10E6/uL
  HEMATOCRIT: 32.12%
  HEMOGLOBIN: 12.58 G/DL
  LEUKOCYTE COUNT: 7.37 x10E3/uL
  LYMPHOCYTE: 92.67%
  MEAN CORPUSCULAR HEMOGLOBIN: 23.97 pg
  MEAN CORPUSCULAR HEMOGLOBIN CONCENTRATION: 39.23 G/DL
  MEAN CORPUSCULAR VOLUME: 61.12 fL
  MONOCYTE: 1%
  NEUTROPHIL: 6.17%
  NUCLEATED RED BLOOD CELLS: 0 /100WBC
  PLATELET COUNT: 961.33 x10E3/uL
  ALANINE AMINOTRANSFERASE: 91 u/L
  ALBUMIN: 4.27 G/DL
  ALKALINE PHOSPHATASE: 368.83 u/L
  ASPARTATE AMINOTRANSFERASE: 131.17 u/L
  BLOOD UREA NITROGEN: 15.67 mg/dL
  CARBON DIOXIDE: 32 mmol/L
  CHLORIDE: 102 MEQ/L
  CHOLESTEROL: 52.67 mg/dL
  CREATINE PHOSPHOKINASE: 300.5 u/L
  CREATININE: 0.21 mg/dL
  GLUCOSE: 154.17 mg/dL
  LACTATE DEHYDROGENASE: 169.67 u/L
  LIPASE: 10.17 u/L
  PHOSPHORUS: 10.03 mg/dL
  POTASSIUM: 5.38 MEQ/L
  SODIUM: 143.68 MEQ/L
  TOTAL BILIRUBIN: 0.1 mg/dL
  TOTAL PROTEIN: 5.75 G/DL
  URIC ACID: 0.85 mg/dL

Source: ChEMBL document CHEMBL3885881, “DrugMatrix”
